Experimental data taken from ChEMBL document CHEMBL1641509, “A PIM₂ analogue suppresses allergic airway disease” (Bioorg Med Chem, 2011).
Activity calls are given as the source filed them.

Key:
Format in all cases: functional, organism-based
Conditions in all cases: Lung
Mus musculus [1] = assay: Antiinflammatory activity against ovalbumin-induced airway allergic C57BL/6 mouse model assessed as decrease of macrophages in bronchoalveolar lavage fluid at 20 ug/mL administered intranasally after 28 days ovalbumin challenge measured on day 32
Mus musculus [2] = assay: Antiinflammatory activity against ovalbumin-induced airway allergic C57BL/6 mouse model assessed as decrease of lymphocytes in bronchoalveolar lavage fluid at 20 ug/mL administered intranasally after 28 days ovalbumin challenge measured on day 32
Mus musculus [3] = assay: Antiinflammatory activity against ovalbumin-induced airway allergic C57BL/6 mouse model assessed as reduction of recruitment of eosinophils in bronchoalveolar lavage fluid at 20 ug/mL administered intranasally after 28 days ovalbumin challenge measured on day 32

Measured: Activity

CCCCCCCCCCCCCCCCCC(=O)OC[C@H](COP(=O)(O)OC(CO[C@H]1O[C@H](CO)[C@@H](O)[C@H](O)[C@@H]1O)CO[C@H]1O[C@H](CO)[C@@H](O)[C@H](O)[C@@H]1O)OC(=O)CCCCCCCCCCCCCCCCC
active: all assays above
